Data taken from BindingDB's records for patent US20260055108 (Hutchmed, 2026).

Target: T1, Menin [2-610] (UniProt O00255)
T1 construct: 2-610
T1 sequence (O00255 whole entry): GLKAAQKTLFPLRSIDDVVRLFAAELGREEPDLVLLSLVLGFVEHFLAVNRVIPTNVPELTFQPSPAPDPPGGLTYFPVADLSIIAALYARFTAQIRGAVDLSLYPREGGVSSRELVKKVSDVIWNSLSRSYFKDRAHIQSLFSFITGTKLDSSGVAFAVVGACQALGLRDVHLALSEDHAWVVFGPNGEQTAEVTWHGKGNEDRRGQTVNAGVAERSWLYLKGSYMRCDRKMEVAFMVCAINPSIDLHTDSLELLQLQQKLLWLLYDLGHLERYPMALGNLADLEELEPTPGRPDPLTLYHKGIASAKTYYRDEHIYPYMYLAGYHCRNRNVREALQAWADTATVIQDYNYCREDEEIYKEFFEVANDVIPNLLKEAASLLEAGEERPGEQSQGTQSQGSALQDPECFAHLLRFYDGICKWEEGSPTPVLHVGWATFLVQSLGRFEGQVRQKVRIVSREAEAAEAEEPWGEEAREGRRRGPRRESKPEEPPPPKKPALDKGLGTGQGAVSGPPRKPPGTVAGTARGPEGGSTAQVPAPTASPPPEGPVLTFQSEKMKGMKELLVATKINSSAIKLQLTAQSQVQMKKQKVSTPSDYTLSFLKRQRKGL
Experiment: Fluorescence Polarization Assay
Experimental: 4 μL of 5× test compound was added to each reaction well of the 384-well plate, and the corresponding volume of 10% DMSO was added to the control wells. Except the control wells, 8 μL of Menin protein reaction solution was added to each well. The reaction solution was incubated at room temperature for 30 minutes, and then 8 μL of MLL polypeptide reaction solution was added to each well. The final concentrations of DMSO in the test compound wells and control wells were all 2%. The 384-well plate was sealed and incubated at room temperature for 30 minutes in the dark.

## CCNC(=O)N1CCC(CN2CCC3(CC2)CN(c2ncnnc2Oc2ccc(F)cc2C(=O)N(CC)C(C)C)C3)CC1 [US20260055108, Compound 28]
  IC50: 2.2 nM
